This note sets out measurements from patent US8741836B2, “Polypeptides” (Novo Nordisk A/S, priority 2011, dated 2014).

Starred links: 1 amine or outer side, 2 acyl side, 3 side chain; linkers in the order of their positions; H or OH if unused. Positions of bridges follow the written chain, without caps; N, C: chain ends. Residues, ends and D or L forms follow the SMILES beside them. Groups on a side chain read outwards from the residue. *: point of attachment. C20 diacid = O=C(O)CCCCCCCCCCCCCCCCCCC(=O)*; C18 diacid = O=C(O)CCCCCCCCCCCCCCCCC(=O)*; γGlu = O=C(O)[C@H](CCC(=O)[*:2])N[*:1]; AEEA = NCCOCCOCC(=O)O

Series [1] is described as follows: Assay (III) ThT fibrillation assay for physical stability. It is filed as physicochemical. The following applies: pH 4.0, ThT fibrillation assay. An outline of the steps:
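Freshly prepared, pH-adjusted formulations with 1 μM ThT incubated at 37 °C under 960 rpm orbital shaking (1 mm), fluorescence (ex 444, em 485 nm) read every 20 min. […] Peptide content before and after measured by reverse-phase HPLC against pramlintide standard.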

The subject of the next series is ad libitum fed rat. Put plainly: Assay (I) efficacy testing on appetite (food intake) using an ad libitum fed rat model. It is filed as in vivo, Sprague Dawley (SD) rats. In outline:
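Ad libitum fed Sprague Dawley rats, 200-250 g, singly housed on reversed light cycle, got one ip, po or sc dose of 0.01-3 mg/kg just before lights off; groups of 5-8 with vehicle control. Food intake recorded hourly for 7 h, then at 24 h and sometimes 48 h; Grubbs outliers excluded.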

On to `CC[C@H](C)[C@H](NC(=O)[C@@H]1CCCN1C(=O)CNC(=O)[C@H](Cc1ccccc1)NC(=O)[C@H](CC(N)=O)NC(=O)[C@H](CC(N)=O)NC(=O)[C@H](CO)NC(=O)[C@H](CO)NC(=O)[C@H](Cc1c[nH]cn1)NC(=O)[C@H](CCCNC(=N)N)NC(=O)[C@H](CC(C)C)NC(=O)[C@H](Cc1ccccc1)NC(=O)[C@H](CCC(=O)O)NC(=O)[C@H](C)NC(=O)[C@H](CC(C)C)NC(=O)[C@H](CCCNC(=N)N)NC(=O)[C@H](CCC(N)=O)NC(=O)[C@@H](NC(=O)[C@H](C)NC(=O)[C@@H]1CSSC[C@H](NC(=O)[C@H](CCCCN)NC(=O)CC[C@H](NC(=O)CCCCCCCCCCCCCCCCCCC(=O)O)C(=O)O)C(=O)N[C@@H](CC(N)=O)C(=O)N[C@@H]([C@@H](C)O)C(=O)N[C@@H](C)C(=O)N[C@@H]([C@@H](C)O)C(=O)N1)[C@@H](C)O)C(=O)N[C@@H](CC(C)C)C(=O)N1CCC[C@H]1C(=O)N1CCC[C@H]1C(=O)N[C@H](C(=O)N[C@@H](CC(N)=O)C(=O)N[C@H](C(=O)NCC(=O)N[C@@H](CO)C(=O)N[C@@H](Cc1c[nH]cn1)C(=O)N[C@H](C(=O)N[C@@H](Cc1ccc(O)cc1)C(N)=O)[C@@H](C)O)C(C)C)[C@@H](C)O` [Example 57, N-alpha-[(S)-4-Carboxy-4-(19-carboxynonadecanoylamino)butyryl]-[Glu14,Arg17,His35]-pramlintide] ({C20 diacid-γGlu}-KCNTATCATQRLAEFLRHSSNNFGPILPPTNVGSHTY-NH2; disulfide 2-7 (inferred)), for which the “ThT pH 4.0 lag time” value in series [1] is reported as above 45 h. In addition, in the series with ad libitum fed rat (0-24 h), the “Food intake reduction 0-24 h 3 nmol/kg (%)” value is reported as 17%. For the same compound, the “Food intake reduction 24-48 h 3 nmol/kg (%)” value in the series with ad libitum fed rat (24-48 h) turned out to be 0%.

As to `CC[C@H](C)[C@H](NC(=O)[C@H](CCCCNC(=O)COCCOCCNC(=O)COCCOCCNC(=O)CC[C@H](NC(=O)CCCCCCCCCCCCCCCCC(=O)O)C(=O)O)NC(=O)CNC(=O)[C@H](Cc1ccccc1)NC(=O)[C@H](CC(N)=O)NC(=O)[C@H](CC(N)=O)NC(=O)[C@H](CO)NC(=O)[C@H](CO)NC(=O)[C@H](Cc1c[nH]cn1)NC(=O)[C@H](Cc1c[nH]cn1)NC(=O)[C@H](CC(C)C)NC(=O)[C@H](Cc1ccccc1)NC(=O)[C@H](CCC(=O)O)NC(=O)[C@H](C)NC(=O)[C@H](CC(C)C)NC(=O)[C@H](CCCNC(=N)N)NC(=O)[C@H](CCC(N)=O)NC(=O)[C@@H](NC(=O)[C@H](C)NC(=O)[C@@H]1CSSC[C@H](NC(=O)[C@@H](N)CCCCN)C(=O)N[C@@H](CC(N)=O)C(=O)N[C@@H]([C@@H](C)O)C(=O)N[C@@H](C)C(=O)N[C@@H]([C@@H](C)O)C(=O)N1)[C@@H](C)O)C(=O)N[C@@H](CC(C)C)C(=O)N1CCC[C@H]1C(=O)N1CCC[C@H]1C(=O)N[C@H](C(=O)N[C@@H](CC(N)=O)C(=O)N[C@H](C(=O)NCC(=O)N[C@@H](CO)C(=O)N[C@@H](CC(N)=O)C(=O)N[C@H](C(=O)N[C@@H](Cc1ccc(O)cc1)C(N)=O)[C@@H](C)O)C(C)C)[C@@H](C)O` [Example 73, N-epsilon25-[2-(2-{2-[2-(2-{2-[(S)-4-Carboxy-4-(17-carboxyheptadecanoylamino)butyrylamino]ethoxy}ethoxy)acetylamino]ethoxy}ethoxy)acetyl]-[Glu14,His17,Lys25]-pramlintide] (H-KCNTATCATQRLAEFLHHSSNNFGK([AEEA-AEEA-γGlu-C18 diacid])ILPPTNVGSNTY-NH2; disulfide 2-7; N-terminus assumed), in series [1], the “ThT pH 4.0 lag time” value was above 45 h. In addition, the “Food intake reduction 0-24 h 3 nmol/kg (%)” value in the series on ad libitum fed rat (0-24 h) worked out at 29%. Moreover, in the series on ad libitum fed rat (24-48 h), the “Food intake reduction 24-48 h 3 nmol/kg (%)” value amounted to 2%.

Consider `CC[C@H](C)[C@H](NC(=O)[C@@H]1CCCN1C(=O)CNC(=O)[C@H](Cc1ccccc1)NC(=O)[C@H](CC(N)=O)NC(=O)[C@H](CC(N)=O)NC(=O)[C@H](CO)NC(=O)[C@H](CO)NC(=O)[C@H](Cc1c[nH]cn1)NC(=O)[C@H](CCCNC(=N)N)NC(=O)[C@H](CC(C)C)NC(=O)[C@H](Cc1ccccc1)NC(=O)[C@H](CCC(=O)O)NC(=O)[C@H](C)NC(=O)[C@H](CC(C)C)NC(=O)[C@H](CCCNC(=N)N)NC(=O)[C@H](CCC(N)=O)NC(=O)[C@@H](NC(=O)[C@H](C)NC(=O)[C@@H]1CSSC[C@H](NC(=O)[C@H](CCCCN)NC(=O)CC[C@H](NC(=O)CCCCCCCCCCCCCCCCCCC(=O)O)C(=O)O)C(=O)N[C@@H](CC(N)=O)C(=O)N[C@@H]([C@@H](C)O)C(=O)N[C@@H](C)C(=O)N[C@@H]([C@@H](C)O)C(=O)N1)[C@@H](C)O)C(=O)N[C@@H](CC(C)C)C(=O)N1CCC[C@H]1C(=O)N1CCC[C@H]1C(=O)N[C@H](C(=O)N[C@@H](CC(N)=O)C(=O)N[C@H](C(=O)NCC(=O)N[C@@H](CO)C(=O)N[C@@H](CC(N)=O)C(=O)N[C@H](C(=O)N[C@@H](Cc1ccc(O)cc1)C(N)=O)[C@@H](C)O)C(C)C)[C@@H](C)O` [Example 50, N-alpha-[(S)-4-Carboxy-4-(19-carboxynonadecanoylamino)butyryl]-[Glu14,Arg17]-pramlintide] ({C20 diacid-γGlu}-KCNTATCATQRLAEFLRHSSNNFGPILPPTNVGSNTY-NH2; disulfide 2-7 (inferred); C-terminus assumed), for which the “ThT pH 4.0 lag time” value in series [1] is above 45 h. The “Food intake reduction 0-24 h 3 nmol/kg (%)” value with ad libitum fed rat (0-24 h) was determined as 30%. For the same compound, the “Food intake reduction 24-48 h 3 nmol/kg (%)” value in the series on ad libitum fed rat (24-48 h) is 8%.

Consider `CC[C@H](C)[C@H](NC(=O)[C@@H]1CCCN1C(=O)CNC(=O)[C@H](Cc1ccccc1)NC(=O)[C@H](CC(N)=O)NC(=O)[C@H](CC(N)=O)NC(=O)[C@H](CO)NC(=O)[C@H](CO)NC(=O)[C@H](Cc1c[nH]cn1)NC(=O)[C@H](Cc1c[nH]cn1)NC(=O)[C@H](CC(C)C)NC(=O)[C@H](Cc1ccccc1)NC(=O)[C@H](CCC(=O)O)NC(=O)[C@H](C)NC(=O)[C@H](CC(C)C)NC(=O)[C@H](CCCNC(=N)N)NC(=O)[C@H](CCC(N)=O)NC(=O)[C@@H](NC(=O)[C@H](C)NC(=O)[C@@H]1CSSC[C@H](NC(=O)[C@H](CCCCN)NC(=O)CC[C@H](NC(=O)CCCCCCCCCCCCCCCCCCC(=O)O)C(=O)O)C(=O)N[C@@H](CC(N)=O)C(=O)N[C@@H]([C@@H](C)O)C(=O)N[C@@H](C)C(=O)N[C@@H]([C@@H](C)O)C(=O)N1)[C@@H](C)O)C(=O)N[C@@H](CC(C)C)C(=O)N1CCC[C@H]1C(=O)N1CCC[C@H]1C(=O)N[C@H](C(=O)N[C@@H](CC(N)=O)C(=O)N[C@H](C(=O)NCC(=O)N[C@@H](CO)C(=O)N[C@@H](Cc1c[nH]cn1)C(=O)N[C@H](C(=O)N[C@@H](Cc1ccc(O)cc1)C(N)=O)[C@@H](C)O)C(C)C)[C@@H](C)O` [Example 55, N-alpha-[(S)-4-Carboxy-4-(19-carboxynonadecanoylamino)butyryl]-[Glu14,His17,His35]-pramlintide] ({C20 diacid-γGlu}-KCNTATCATQRLAEFLHHSSNNFGPILPPTNVGSHTY-NH2; disulfide 2-7 (inferred)), for which the “ThT pH 4.0 lag time” value in series [1] was 37 h. In the series with ad libitum fed rat (0-24 h), the “Food intake reduction 0-24 h 3 nmol/kg (%)” value was 58%. For the same compound, the “Food intake reduction 24-48 h 3 nmol/kg (%)” value in the series on ad libitum fed rat (24-48 h) was determined as 40%. In addition, the “Food intake reduction 0-24 h 30 nmol/kg (%)” value with ad libitum fed rat (30 nmol/kg, 0-24 h) is reported as 88%. In the series on ad libitum fed rat (30 nmol/kg, 24-48 h), the “Food intake reduction 24-48 h 30 nmol/kg (%)” value is 90%.
